Source: the supplement of paper PMC10307832

How the values were obtained:
Test in all cases: relative viability (nuclei count vs DMSO), 5 days (fraction); higher = more cells survive
[1] = test system: EMC-BAC-2
Summary of the method: (§1)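 After 5 days of treatment, lung cancer cells in 1536-well plates were fixed and stained in a single step (final 0.05% Triton X-100, 1% formaldehyde, 1 ug/ml Hoechst) and their nuclei counted on 4× images. Treatment had been applied by pin tool the day after seeding as one drug alone or as a fixed anchor-drug dose with five library-drug doses (not always all listed) in √10 steps. Relative viability is the nuclei count of treated wells divided by that of vehicle wells, and values are medians of duplicate plates.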

[2] = test system: SK-MES-1
Summary of the method: as §1

[3] = test system: NCI-H3122
Summary of the method: as §1

[4] = test system: NCI-H727
Summary of the method: as §1

[5] = test system: ABC-1
Summary of the method: as §1

[6] = test system: NCI-H322M
Summary of the method: as §1

[7] = test system: NCI-H2009
Summary of the method: as §1

[8] = test system: LK-2
Summary of the method: as §1

[9] = test system: HOP-62
Summary of the method: as §1

[10] = test system: NCI-H1944
Summary of the method: as §1

[11] = test system: NCI-H2228
Summary of the method: as §1

[12] = test system: A-427
Summary of the method: as §1

[13] = test system: SW 1573
Summary of the method: as §1

[14] = test system: NCI-H2170
Summary of the method: as §1

[15] = test system: NCI-H596
Summary of the method: as §1

[16] = test system: PC-3 [JPC-3]
Summary of the method: as §1

[17] = test system: LXF-289
Summary of the method: as §1

[18] = test system: NCI-H1792
Summary of the method: as §1

[19] = test system: HARA
Summary of the method: as §1

[20] = test system: NCI-H1993
Summary of the method: as §1

Structure (SMILES): CCN(CC)CCCCNc1ncc2cc(-c3cc(OC)cc(OC)c3)c(NC(=O)NC(C)(C)C)nc2n1 + CS(=O)(=O)N1CCN(Cc2cc3nc(-c4cccc5[nH]ncc45)nc(N4CCOCC4)c3s2)CC1 [Pictilisib] (partner 1 µM)
- relative viability ([1]; first compound 0.01 µM): 0.581
- relative viability ([1]; first compound 0.03162 µM): 0.507
- relative viability ([1]; first compound 0.1 µM): 0.546
- relative viability ([1]; first compound 0.3162 µM): 0.574
- relative viability ([1]; first compound 1 µM): 0.456
- relative viability ([2]; first compound 0.01 µM): 0.307
- relative viability ([2]; first compound 0.03162 µM): 0.334
- relative viability ([2]; first compound 0.1 µM): 0.406
- relative viability ([2]; first compound 0.3162 µM): 0.425
- relative viability ([2]; first compound 1 µM): 0.348
- relative viability ([3]; first compound 0.01 µM): 0.618
- relative viability ([3]; first compound 0.03162 µM): 0.598
- relative viability ([3]; first compound 0.1 µM): 0.674
- relative viability ([3]; first compound 0.3162 µM): 0.64
- relative viability ([3]; first compound 1 µM): 0.592
- relative viability ([4]; first compound 0.01 µM): 0.413
- relative viability ([4]; first compound 0.03162 µM): 0.417
- relative viability ([4]; first compound 0.1 µM): 0.362
- relative viability ([4]; first compound 0.3162 µM): 0.627
- relative viability ([4]; first compound 1 µM): 0.41
- relative viability ([5]; first compound 0.01 µM): 0.686
- relative viability ([5]; first compound 0.03162 µM): 0.66
- relative viability ([5]; first compound 0.1 µM): 0.736
- relative viability ([5]; first compound 0.3162 µM): 0.818
- relative viability ([5]; first compound 1 µM): 0.671
- relative viability ([6]; first compound 0.01 µM): 0.573
- relative viability ([6]; first compound 0.03162 µM): 0.47
- relative viability ([6]; first compound 0.1 µM): 0.499
- relative viability ([6]; first compound 0.3162 µM): 0.566
- relative viability ([6]; first compound 1 µM): 0.456
- relative viability ([7]; first compound 0.01 µM): 0.727
- relative viability ([7]; first compound 0.03162 µM): 0.79
- relative viability ([7]; first compound 0.1 µM): 0.824
- relative viability ([7]; first compound 0.3162 µM): 0.965
- relative viability ([7]; first compound 1 µM): 0.815
- relative viability ([8]; first compound 0.01 µM): 0.624
- relative viability ([8]; first compound 0.03162 µM): 0.438
- relative viability ([8]; first compound 0.1 µM): 0.425
- relative viability ([8]; first compound 0.3162 µM): 0.388
- relative viability ([8]; first compound 1 µM): 0.263
- relative viability ([9]; first compound 0.01 µM): 0.732
- relative viability ([9]; first compound 0.03162 µM): 0.772
- relative viability ([9]; first compound 0.1 µM): 0.582
- relative viability ([9]; first compound 0.3162 µM): 0.747
- relative viability ([9]; first compound 1 µM): 0.985
- relative viability ([10]; first compound 0.01 µM): 0.362
- relative viability ([10]; first compound 0.03162 µM): 0.327
- relative viability ([10]; first compound 0.1 µM): 0.367
- relative viability ([10]; first compound 0.3162 µM): 0.352
- relative viability ([10]; first compound 1 µM): 0.341
- relative viability ([11]; first compound 0.01 µM): 0.441
- relative viability ([11]; first compound 0.03162 µM): 0.311
- relative viability ([11]; first compound 0.1 µM): 0.353
- relative viability ([11]; first compound 0.3162 µM): 0.539
- relative viability ([11]; first compound 1 µM): 0.246
- relative viability ([12]; first compound 0.01 µM): 0.704
- relative viability ([12]; first compound 0.03162 µM): 0.657
- relative viability ([12]; first compound 0.1 µM): 0.769
- relative viability ([12]; first compound 0.3162 µM): 0.671
- relative viability ([12]; first compound 1 µM): 0.353
- relative viability ([13]; first compound 0.01 µM): 0.528
- relative viability ([13]; first compound 0.03162 µM): 0.48
- relative viability ([13]; first compound 0.1 µM): 0.615
- relative viability ([13]; first compound 0.3162 µM): 0.66
- relative viability ([13]; first compound 1 µM): 0.507
- relative viability ([14]; first compound 0.01 µM): 0.326
- relative viability ([14]; first compound 0.03162 µM): 0.27
- relative viability ([14]; first compound 0.1 µM): 0.299
- relative viability ([14]; first compound 0.3162 µM): 0.317
- relative viability ([14]; first compound 1 µM): 0.322
- relative viability ([15]; first compound 0.01 µM): 0.422
- relative viability ([15]; first compound 0.03162 µM): 0.418
- relative viability ([15]; first compound 0.1 µM): 0.369
- relative viability ([15]; first compound 0.3162 µM): 0.378
- relative viability ([15]; first compound 1 µM): 0.35
- relative viability ([16]; first compound 0.01 µM): 0.739
- relative viability ([16]; first compound 0.03162 µM): 0.843
- relative viability ([16]; first compound 0.1 µM): 0.786
- relative viability ([16]; first compound 0.3162 µM): 0.815
- relative viability ([16]; first compound 1 µM): 0.602
- relative viability ([17]; first compound 0.01 µM): 0.769
- relative viability ([17]; first compound 0.03162 µM): 0.874
- relative viability ([17]; first compound 0.1 µM): 0.792
- relative viability ([17]; first compound 0.3162 µM): 0.676
- relative viability ([17]; first compound 1 µM): 0.386
- relative viability ([18]; first compound 0.01 µM): 0.249
- relative viability ([18]; first compound 0.03162 µM): 0.282
- relative viability ([18]; first compound 0.1 µM): 0.241
- relative viability ([18]; first compound 0.3162 µM): 0.265
- relative viability ([18]; first compound 1 µM): 0.225
- relative viability ([19]; first compound 0.01 µM): 0.421
- relative viability ([19]; first compound 0.03162 µM): 0.356
- relative viability ([19]; first compound 0.1 µM): 0.307
- relative viability ([19]; first compound 0.3162 µM): 0.485
- relative viability ([19]; first compound 1 µM): 0.176
- relative viability ([20]; first compound 0.01 µM): 0.759
- relative viability ([20]; first compound 0.03162 µM): 0.947
- relative viability ([20]; first compound 0.1 µM): 0.861
- relative viability ([20]; first compound 0.3162 µM): 0.86
- relative viability ([20]; first compound 1 µM): 0.91
